Test results from patent US9365522B2, “Pyrazole amide derivative” (AMGEN INC., priority 2015, dated 2016).

Molecular target: T1, ligand binding domain of human ROR gamma (Homo sapiens, UniProt P51449)
T1 construct: NM_001001523; expressed in transfected cells; host or cells: HEK293T
T1 sequence (P51449 247-497 isoform P51449-2): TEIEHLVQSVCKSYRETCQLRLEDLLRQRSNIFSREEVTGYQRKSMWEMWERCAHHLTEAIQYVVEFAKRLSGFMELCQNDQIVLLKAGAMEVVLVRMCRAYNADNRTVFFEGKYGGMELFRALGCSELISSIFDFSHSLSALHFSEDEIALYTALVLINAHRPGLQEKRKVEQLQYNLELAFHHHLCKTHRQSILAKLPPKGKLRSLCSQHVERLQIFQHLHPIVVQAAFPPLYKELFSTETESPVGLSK
Assay: ROR gamma reporter gene assay (GAL4-RORγ LBD luciferase, Dual-Glo)
Assay type: cell-based
Conditions: HEK293T cells transfected with pM-ROR gamma, 8 concentrations 3.5 nM to 10.5 μM, 24 h incubation; read-out: result (pIC50, inhibition of RORγ transcriptional activity) (converted)
Procedure, shortened: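 HEK293T cells were co-transfected with GAL4 DBD fused to human RORγ LBD (aa 247-497), a 5×UAS firefly luciferase reporter and CMV-driven renilla luciferase, in medium with 10% charcoal-stripped FBS.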

| Compound | IC50 [pM] |
| --- | --- |
| CC1(C)[C@@H]2C[C@H](N(CC(=O)c3c(Cl)cc(F)cc3Cl)C(=O)c3cnn([C@H]4CC[C@](C)(C(=O)O)CC4)c3C(F)(F)F)C[C@@H]21 [Example 199, trans-4-(4-((2-(2,6-dichloro-4-fluorophenyl)-2-oxoethyl)-((1R,3r,5S)-6,6-dimethyl-3-bicyclo[3.1.0]hexanyl)carbamoyl)-5-(trifluoromethyl)pyrazol-1-yl)-1-methylcyclohexane-1-carboxylic acid] | 5010 |
| O=C(CN(CC1CC2(CC2)C1)C(=O)c1cnn([C@H]2CC[C@H](C(=O)O)CC2)c1C(F)(F)F)c1c(Cl)cncc1Cl [Example 200, trans-4-(4-((2-(3,5-dichloropyridin-4-yl)-2-oxoethyl)-(spiro[2.3]hexan-5-ylmethyl)carbamoyl)-5-(trifluoromethyl)pyrazol-1-yl)cyclohexane-1-carboxylic acid] | 15800 |
| Cn1nc(Cl)c(C(=O)CN(Cc2cc(F)cc(F)c2)C(=O)c2cnn([C@H]3CC[C@H](C(=O)O)CC3)c2C(F)(F)F)c1Cl [Example 201, trans-4-(4-((2-(3,5-dichloro-1-methylpyrazol-4-yl)-2-oxoethyl)-((3,5-difluorophenyl)methyl)carbamoyl)-5-(trifluoromethyl)pyrazol-1-yl)cyclohexane-1-carboxylic acid] | > 1e+07 |
| C[C@]1(C(=O)O)CC[C@H](n2ncc(C(=O)N(CC(=O)c3c(Cl)cc(F)cc3Cl)CC3CC4(CC4)C3)c2C(F)(F)F)CC1 [Example 202, trans-4-(4-((2-(2,6-dichloro-4-fluorophenyl)-2-oxoethyl)-(spiro[2.3]hexan-5-ylmethyl)carbamoyl)-5-(trifluoromethyl)pyrazol-1-yl)-1-methylcyclohexane-1-carboxylic acid] | 7940 |
| CC(C)(C)CC1CC(N(CC(=O)c2c(Cl)cc(F)cc2Cl)C(=O)c2cnn([C@H]3CC[C@](C)(C(=O)O)CC3)c2C(F)(F)F)C1 (stereo partly drawn) [Example 203, trans-4-(4-((2-(2,6-dichloro-4-fluorophenyl)-2-oxoethyl)-(3-(2,2-dimethylpropyl)cyclobutyl)carbamoyl)-5-(trifluoromethyl)pyrazol-1-yl)-1-methylcyclohexane-1-carboxylic acid] | 912000 |
| CC(C1CC2(CC2)C1)N(CC(=O)c1c(Cl)cncc1Cl)C(=O)c1cnn([C@H]2CC[C@H](C(=O)O)CC2)c1C(F)(F)F (stereo partly drawn) [Example 204, trans-4-(4-((2-(3,5-dichloropyridin-4-yl)-2-oxoethyl)-(1-spiro[2.3]hexan-5-ylethyl)carbamoyl)-5-(trifluoromethyl)pyrazol-1-yl)cyclohexane-1-carboxylic acid] | 60300 |
| CC1(C)CCCC(N(CC(=O)c2c(Cl)cncc2Cl)C(=O)c2cnn([C@H]3CC[C@H](C(=O)O)CC3)c2C(F)(F)F)C1 (stereo partly drawn) [Example 205, trans-4-(4-((2-(3,5-dichloropyridin-4-yl)-2-oxoethyl)-(3,3-dimethylcyclohexyl)carbamoyl)-5-(trifluoromethyl)pyrazol-1-yl)cyclohexane-1-carboxylic acid] | 138000 |

Now from value to molecule:

| IC50 [pM] | Compound |
| --- | --- |
| 100000 | Cc1cc(Cl)c(C(=O)CN(CC#CC(C)(C)C)C(=O)c2cnn([C@H]3CC[C@](C)(C(=O)O)CC3)c2C(F)(F)F)c(Cl)c1 [Example 206, trans-4-(4-((2-(2,6-dichloro-4-methylphenyl)-2-oxoethyl)-(4,4-dimethylpent-2-ynyl)carbamoyl)-5-(trifluoromethyl)pyrazol-1-yl)-1-methylcyclohexane-1-carboxylic acid] |
| 63100 | CC(C)(C)C#CCN(CC(=O)c1c(Cl)cc(Cl)cc1Cl)C(=O)c1cnn([C@H]2CC[C@](C)(C(=O)O)CC2)c1C(F)(F)F [Example 207, trans-4-(4-(4,4-dimethylpent-2-ynyl-(2-oxo-2-(2,4,6-trichlorophenyl)ethyl)carbamoyl)-5-(trifluoromethyl)pyrazol-1-yl)-1-methylcyclohexane-1-carboxylic acid] |
| 302000 | CC1(C)CC(N(CC(=O)c2c(Cl)cncc2Cl)C(=O)c2cnn([C@H]3CC[C@H](C(=O)O)CC3)c2C(F)(F)F)CO1 (stereo partly drawn) [Example 208, trans-4-(4-((2-(3,5-dichloropyridin-4-yl)-2-oxoethyl)-(5,5-dimethyloxolan-3-yl)carbamoyl)-5-(trifluoromethyl)pyrazol-1-yl)cyclohexane-1-carboxylic acid] |
| > 1e+07 | O=C(CN(Cc1cc(F)cc(F)c1)C(=O)c1cnn([C@H]2CC[C@H](C(=O)O)CC2)c1C(F)(F)F)c1c(Cl)n[nH]c1Cl [Example 209, trans-4-(4 ((2-(3,5-dichloro-1H-pyrazol-4-yl)-2-oxoethyl)-((3,5-difluorophenyl)methyl)carbamoyl)-5-(trifluoromethyl)pyrazol-1-yl)cyclohexane-1-carboxylic acid] |
| 1.02e+06 | CC1(C#N)CCC(N(CC(=O)c2c(Cl)cncc2Cl)C(=O)c2cnn([C@H]3CC[C@H](C(=O)O)CC3)c2C(F)(F)F)C1 (stereo partly drawn) [Example 210, trans-4-(4-((3-cyano-3-methylcyclopentyl)-(2-(3,5-dichloropyridin-4-yl)-2-oxoethyl)carbamoyl)-5-(trifluoromethyl)pyrazol-1-yl)cyclohexane-1-carboxylic acid] |
| 22400 | CC1(C)[C@@H]2C[C@H](N(CC(=O)c3c(Cl)cncc3Cl)C(=O)c3cnn([C@H]4CC[C@H](C(=O)O)CC4)c3C(F)(F)F)C[C@@H]21 [Example 211, trans-4-(4-((2-(3,5-dichloropyridin-4-yl)-2-oxoethyl)-((1R,3r,5S)-6,6-dimethyl-3-bicyclo[3.1.0]hexanyl)carbamoyl)-5-(trifluoromethyl)pyrazol-1-yl)cyclohexane-1-carboxylic acid] |
| 20000 | O=C(CN(C(=O)c1cnn([C@H]2CC[C@H](C(=O)O)CC2)c1C(F)(F)F)[C@H]1CC[C@@H](C(F)(F)F)CC1)c1c(Cl)cncc1Cl [Example 212, trans-4-(4-((2-(3,5-dichloropyridin-4-yl)-2-oxoethyl)-(4-(trifluoromethyl)cyclohexyl)carbamoyl)-5-(trifluoromethyl)pyrazol-1-yl)cyclohexane-1-carboxylic acid] |
| 112000 | O=C(CN(C(=O)c1cnn([C@H]2CC[C@H](C(=O)O)CC2)c1C(F)(F)F)[C@H]1CC[C@H](C(F)(F)F)CC1)c1c(Cl)cncc1Cl [Example 213, trans-4-(4-((2-(3,5-dichloropyridin-4-yl)-2-oxoethyl)-(4-(trifluoromethyl)cyclohexyl)carbamoyl)-5-(trifluoromethyl)pyrazol-1-yl)cyclohexane-1-carboxylic acid] |
| 324000 | COc1cccc(Cl)c1C(=O)CN(CC#CC(C)(C)C)C(=O)c1cnn([C@H]2CC[C@](C)(C(=O)O)CC2)c1C(F)(F)F [Example 214, trans-4-(4-((2-(2-chloro-6-methoxyphenyl)-2-oxoethyl)-(4,4-dimethylpent-2-ynyl)carbamoyl)-5-(trifluoromethyl)pyrazol-1-yl)-1-methylcyclohexane-1-carboxylic acid] |
| 32400 | O=C(CN(C(=O)c1cnn([C@H]2CC[C@H](C(=O)O)CC2)c1C(F)(F)F)C1CC2CCC1C2)c1c(Cl)cncc1Cl (stereo partly drawn) [Example 215, trans-4-(4-(3-bicyclo[2.2.1]heptanyl-(2-(3,5-dichloropyridin-4-yl)-2-oxoethyl)carbamoyl)-5-(trifluoromethyl)pyrazol-1-yl)cyclohexane-1-carboxylic acid] |
